Results reported in US20150216870A1, “Combination of PI3K Inhibitor and C-Met Inhibitor” (Novartis AG, priority 2012, published 2015).

Legend:
H4 = experiment: CellTiter-Glo cell viability dose matrix in H4 glioblastoma cells; format: cell-based, human; settings: H4 (PTEN mutant, HGF expressing)
Description: (§2) The PI3K inhibitor COMPOUND C and the c-MET receptor tyrosine kinase inhibitor 2-fluoro-N-methyl-4-[7-quinolin-6-yl-methyl)-imidazo[1,2-b][1,2,4]triazin-2yl]benzamide are evaluated in combination in glioblastoma tumor models. COMPOUND C (10 mM) and 2-fluoro-N-methyl-4-[7-quinolin-6-yl-methyl)-imidazo[1,2-b][1,2,4]triazin-2yl]benzamide (10 mM) are dissolved in DMSO, and are stored in aliquots at −20° C.
(§3) Human Glioblastoma cell lines, U-87 MG (PTEN mutant and HGF expressing line), H4 (PTEN mutant and HGF expressing line), A172 (PTEN mutant line with low HGF expression level) and LN-229 (PTEN wildtype and HGF low) are purchased from American Type Cell Collection and are maintained in a humidified incubator at 37° C. in 5% CO2 in recommended media. All four cell lines express detected MET at the mRNA level.
(§4) The cells are passaged twice a week and the medium is changed every 2 to 3 days. […]
(§5) Cell viability is determined by measuring cellular ATP content using the CellTiter-Glo® (CTG) luminescent cell viability assay (Promega). […] An equal volume of the CTG reagents is added to each well at the end of the compound treatment and luminescence is recorded on an Envision plate reader (Perkin Elmer). Reduced and enhanced luminescent signal values (responses) are calculated relative to untreated (control) cells. […]

U-87 MG = experiment: CellTiter-Glo cell viability dose matrix in U-87 MG glioblastoma cells; format: cell-based, human; settings: U87 MG (PTEN mutant, HGF expressing)
Description: as §2, §3, §4, §5

[1] = Toxicity (deaths) in U-87 MG xenograft study; format: in vivo
From the text: (§1) Animals are weighed on Days 1-5, on each treatment day (except weekends), and twice weekly thereafter, until the end of the study. Group mean BW nadir determinations exclude measurements taken after more than 50% of the assessable mice in the group had exited the study, and also excluded any animal that was classified as an NTR death during the study. Acceptable toxicity for the maximum tolerated dose (MTD) is defined as a group mean BW loss of less than 15% during the test, and not more than one TR death among ten animals. Any animal with BW losses exceeding 15% for three consecutive measurements, or with a BW loss exceeding 20% for one measurement, are euthanized, and classified as a TR death unless it was the first death in the group. A death is classified as Non-Treatment Related (NTR) if there was no evidence that the death is related to treatment side effects and the death occurs more than 14 days after dosing ended. NTR deaths are categorized as NTRa (due to accident or error), NTRu (due to unknown causes), or NTRm (necropsy-confirmed tumor dissemination by invasion and/or metastasis). To conserve animals while providing maximum information, the first death in a group was classified as NTRu; such an NTR death was to be reclassified as TR if two subsequent TR deaths are recorded in the same group.

[2] = system: U-87 MG human glioblastoma xenograft; experiment: U-87 MG xenograft tumor growth inhibition and tumor growth delay; format: in vivo, nude mice; settings: for T/C or T/T0: D13; for Median TTE: endpoint 2000 mm3; for Regress.: PR: number of animals
Description: In this experiment, the U-87 MG human glioblastoma xenograft model is used to assess the anti-tumor efficacy of the PI3K inhibitor COMPOUND C and c-Met inhibitor 2-fluoro-N-methyl-4-[7-quinolin-6-yl-methyl)-imidazo[1,2-b][1,2,4]triazin-2yl]benzamide as single agents or in combination. U-87 MG tumor cells obtained from the National Cancer Institute are reported to be homozygous for likely oncogenic variants of CDKN2A, CDKN2C, CDKN2a, and PTEN; no mutations are detected in MET, PIK3CA, or 58 other genes that are frequently altered in neoplastic cells; and HGF expressing.
Mice are treated daily for 21 days with 17.7 and 35.3 mg/kg of the c-Met inhibitor and 32.7 mg/kg COMPOUND C monotherapies, and with the c-Met inhibitor/COMPOUND C dual therapy at 17.7:32.7. An c-Met inhibitor/COMPOUND C combination at the 58.8:5.4 mg/kg dose ratio was included in the study. The control mice received both vehicles, and a standard preclinical temozolomide regimen monitored tumor model performance. The oral treatments began on Day 1 (D1) in nude mice with established subcutaneous tumors. Each animal was euthanized when its tumor reached the predetermined 2000 mm3 endpoint volume, or on D60, whichever came first. The study was terminated on D51. […] Overall efficacy was determined from the times required for tumors to progress to the volume endpoint, and from D51 survival and regression rates. This report describes the methods and results of the U87MG-e326 tumor growth delay experiment.
The animals are fed ad libitum water (reverse osmosis, 1 ppm CI) and NIH 31 Modified and Irradiated Lab Diet® consisting of 18.0% crude protein, 5.0% crude fat, and 5.0% crude fiber. The mice are housed on irradiated Enrich-O'cobs™ Laboratory Animal Bedding in static microisolators on a 12-hour light cycle at 20-22° C. (68-72° F.) and 40-60% humidity.
The U-87 MG tumor line is obtained from the American Type Culture Collection and maintained by serial engraftment in nude mice. A tumor fragment (1 mm^3) is implanted subcutaneously into the right flank of each test mouse. Tumors are calipered in two dimensions to monitor growth as their mean volume approached the desired 100-150 mm^3 range. Tumor size, in mm^3, was calculated from: Tumor Volume=(width^2×length)/2, where width and length (in mm) are measurements of the tumor. Tumor weight can be estimated with the assumption that 1 mg is equivalent to 1 mm^3 of tumor volume. Fourteen days after tumor cell implantation, on D1 of the study, mice with individual tumor volumes of 63-196 mm^3 are sorted into seven groups, with group mean tumor volumes of 122-127 mm^3.
The c-Met inhibitor 2-fluoro-N-methyl-4-[7-quinolin-6-yl-methyl)-imidazo[1,2-b][1,2,4]triazin-2yl]benzamide (di-HCl salt, 84.98% free base) is stored at 4° C. and is added to deionized water at 2× the final concentration and sonicated until dissolved. An equal volume of 0.5% methylcellulose and 0.1% Tween® 80 in deionized water is added to provide a 5.884 mg/mL dosing solution in 0.25% methylcellulose and 0.05% Tween® 80 in deionized water (Vehicle 1). Portions of this solution are diluted with Vehicle 1 to provide 3.53 and 1.765 mg/mL dosing solutions.
COMPOUND C (HCl salt, 91.85% free base) is stored at −20° C. and is added to 1% Tween® 80 in deionized water and sonicated to obtain a uniform suspension at 2× the final concentration. […] The 0.544 mg/mL dosing suspension is obtained by diluting a portion of the first suspension with Vehicle 2.

[3] = Toxicity (body weight, deaths) in NCI-H1993 xenograft study; format: in vivo; settings: c-Met inhibitor 17.7 mg/kg p.o. b.i.d. to end
Description: as §1, with “the study. The maximum group mean body weight (BW) loss is determined for the interval between D1 and D20 as well as for the entire study. Group mean” for “the study. Group mean”, “the group have exited the” for “the group had exited the”, “and also exclude any animal” for “and also excluded any animal”, “classified as a non-treatment related (NTR) death during” for “classified as an NTR death during”, “classified as NTR if there” for “classified as Non-Treatment Related (NTR) if there”

[4] = c-Met inhibitor 17.7 mg/kg p.o. qd x21
[5] = c-Met inhibitor 35.3 mg/kg p.o. qd x21
[6] = c-Met inhibitor 17.7 mg/kg (15 mg/kg free base) p.o. qd x21
[7] = c-Met inhibitor 35.3 mg/kg (30 mg/kg free base) p.o. qd x21

SMILES: CNC(=O)c1ccc(-c2cnc3ncc(Cc4ccc5ncccc5c4)n3n2)cc1F [c-Met inhibitor]
- anti-proliferative activity (single agent) (H4): only moderate activities
- anti-proliferative activity (single agent) (U-87 MG): only moderate activities
- Deaths [1, 4]: (0)
- Deaths [1, 5]: (0)
- increase of median TTE ([2]; c-Met inhibitor 15 mg/kg free base p.o. qd x21): 21.4 days
- % TGD [2, 6]: 183%
- T/C or T/T0 [2, 6]: 5%
- T/C or T/T0 ([2]; c-Met inhibitor 17.7 mg/kg (15 mg/kg free base) p.o. qd x21, listed as c-Met inh.): 5%
- Median TTE [2, 6]: 33.1 days
- Regress.: PR [2, 4]: 4 PR
- increase of median TTE ([2]; c-Met inhibitor 30 mg/kg free base p.o. qd x21): 23.4 days
- % TGD [2, 7]: 200%
- T/C or T/T0 [2, 7]: 1%
- T/C or T/T0 ([2]; c-Met inhibitor 35.3 mg/kg (30 mg/kg free base) p.o. qd x21, listed as c-Met inh.): 1%
- Median TTE [2, 7]: 35.1 days
- Regress.: PR [2, 5]: 4 PR
- Deaths: NTR [3]: (1 NTR)
- deaths due to individual body weight losses [3]: One
